Reference: patent publication US12577247B2 (BUGWORKS RESEARCH, INC., priority 2021, dated 2026)

Key:
A2A receptor [1] = biological target: T1, A2A receptor (Homo sapiens, UniProt P29274); experiment: A2aR antagonism IC50, cAMP TR-FRET (Lance Ultra) in HEK-293 cells, NECA as agonist; type: cell-based; settings: A2AR IC50 (nM) (@5 nM NECA), HEK-293 cells expressing A2A receptor; agonist NECA 5 nM (EC90); inhibition of cAMP;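 further: compounds tested from 10 µM down to 0.08 nM in buffer with Rolipram at room temperature, TR-FRET cAMP signal read 1 h after adding Eu-cAMP tracer and ULight anti-cAMP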
T1 construct: host or cells: HEK-293

A2A receptor [2] = biological target: T1, A2A receptor; experiment: A2aR antagonism IC50, cAMP TR-FRET in HEK-293 cells, high concentration of adenosine (30 μM); type: cell-based; settings: HEK-293 cells expressing A2A receptor, agonist adenosine 30 μM, 2% HSA, inhibition of cAMP;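 further: compounds added 10 min before adenosine, then 30 min stimulation at room temperature in buffer with 100 µM rolipram and 30 µM EHNA, signal read 1 h after detection reagents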
Protocol: A Time-Resolved Fluorescence Energy Transfer (TR-FRET) assay was used to show the inhibition of this cAMP production in HEK cells upon treatment with compounds of the Formula I of the present disclosure.
HEK-293 cells expressing A2A receptor (#ES-011-C) or A2B receptor (#ES 013-C) were obtained from PerkinElmer. Cells were maintained in DMEM medium supplemented with 10% FBS and 200 μg/mL of G418 at 37° C. and 5% CO2. The cells were cultured in antibiotic free medium for a period of 16-20 hours prior to the assay. All subsequent steps of the assay are performed at room temperature (22-24° C.). […] About 1500 cells per well were pre-incubated for 10 minutes with the compounds of the present invention before adding the agonist Adenosine at a high concentration (30 μM) for a total stimulation time of 30 minutes. […] The assays were conducted in a stimulation buffer containing 1×DMEM, 5 mM HEPES, 2% Human serum albumin (HSA), 100 μM Rolipram and 30 μM erythro-9-(2-hydroxy-3-nonyl) adenine (EHNA). Serial dilutions of compounds were made in stimulation buffer to achieve a final concentration of high micromolar in a reaction volume of 10 μL. The total reaction volume was 10 μL (5 μL of cells, 2.5 μL of antagonist and 2.5 μL of agonist). […] The stimulation was ended, and the reaction completed by adding 5 μL of 4× Eu-cAMP tracer working solution and 5 μL of 4× ULight-anti-cAMP working solution. The TR FRET signal was measured after 1-hour incubation using a Tecan M1000 or a PerkinElmer Victor Nivo plate reader.

A2B receptor [3] = biological target: T2, A2B receptor (Homo sapiens, UniProt P29275); experiment: A2bR antagonism IC50, cAMP TR-FRET (Lance Ultra) in HEK-293 cells, NECA as agonist; type: cell-based; design: host or cells: HEK-293; settings: HEK-293 cells expressing A2B receptor; agonist NECA 30 nM (EC90); inhibition of cAMP
T2 sequence (P29275 1-332): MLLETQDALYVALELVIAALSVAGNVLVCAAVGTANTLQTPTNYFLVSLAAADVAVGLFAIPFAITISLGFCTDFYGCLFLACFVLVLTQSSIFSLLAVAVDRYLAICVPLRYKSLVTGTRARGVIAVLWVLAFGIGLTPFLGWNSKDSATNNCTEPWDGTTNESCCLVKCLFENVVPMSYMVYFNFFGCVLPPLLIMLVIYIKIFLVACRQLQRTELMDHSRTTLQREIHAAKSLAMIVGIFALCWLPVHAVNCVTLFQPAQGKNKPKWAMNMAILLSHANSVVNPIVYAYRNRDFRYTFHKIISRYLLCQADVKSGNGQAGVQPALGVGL
Description: Adenosine A2A receptors and Adenosine A2B receptors induce the production of cAMP when activated/stimulated by an agonist like adenosine or 5′-(N-Ethylcarboxamido) adenosine (NECA). A Time-Resolved Fluorescence Energy Transfer (TR-FRET) assay was used to show the inhibition of this cAMP production in HEK cells upon treatment with compounds of the Formula I of the present disclosure.
HEK-293 cells expressing A2A receptor (#ES-011-C) or A2B receptor (#ES 013-C) were obtained from PerkinElmer. Cells were maintained in DMEM medium supplemented with 10% FBS and 200 μg/mL of G418 at 37° C. and 5% CO2. The cells were cultured in antibiotic free medium for a period of 16-20 hours prior to the assay. All subsequent steps of the assay are performed at room temperature (22-24° C.). The cells were harvested at about 80% confluency by gentle flushing with PBS, recovered by centrifugation and resuspended in stimulation buffer at the concentration of 5.0×10^6 cells/mL.
The assays were conducted in a stimulation buffer containing 1×DMEM, 5 mM HEPES, 0.1% BSA stabilizer and 20-30 μM Rolipram. Serial dilutions of compounds were made in stimulation buffer to achieve a final concentration of high micromolar (10 μM to 0.08 nM) in the reaction volume of 10 μL. The total reaction volume was 10 μL (5 μL of cells, 2.5 μL of antagonist and 2.5 μL of agonist). The stimulation was ended, and the reaction completed by adding 5 μL of 4× Eu-cAMP tracer working solution and 5 μL of 4× ULight-anti-cAMP working solution. The TR-FRET signal was measured after 1-hour incubation using a Tecan M1000 reader.

A2B receptor [4] = biological target: T2, A2B receptor; experiment: A2bR antagonism IC50, cAMP TR-FRET in HEK-293 cells, high concentration of adenosine (30 μM); settings: A2BR IC50 (nM) (@30 μM Adenosine), HEK-293 cells expressing A2B receptor; agonist adenosine 30 μM; 2% HSA; inhibition of cAMP;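 further: compounds preincubated 10 min with cells, then adenosine stimulation 30 min at room temperature in buffer with Rolipram 100 µM and EHNA 30 µM, TR-FRET read after 1 h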
[5] = read-out: A2AR IC50 (nM) (@30 μM Adenosine)

T1 sequence (P29274 whole entry): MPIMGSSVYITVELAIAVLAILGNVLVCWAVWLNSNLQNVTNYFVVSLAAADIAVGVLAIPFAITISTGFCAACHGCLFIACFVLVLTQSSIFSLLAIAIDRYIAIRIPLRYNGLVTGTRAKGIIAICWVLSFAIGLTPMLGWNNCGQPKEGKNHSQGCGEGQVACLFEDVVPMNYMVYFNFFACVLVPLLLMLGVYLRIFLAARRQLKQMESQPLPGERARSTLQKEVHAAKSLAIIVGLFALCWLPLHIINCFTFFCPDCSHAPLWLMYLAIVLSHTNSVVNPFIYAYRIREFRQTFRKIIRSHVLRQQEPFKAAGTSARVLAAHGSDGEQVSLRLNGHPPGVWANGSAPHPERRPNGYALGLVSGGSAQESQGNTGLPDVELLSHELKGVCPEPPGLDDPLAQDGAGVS

Row | Compound | IC50 (A2A receptor [1]) | IC50 (A2A receptor [2]; [5]) | IC50 (A2B receptor [3]) | IC50 (A2B receptor [4]) | IC50 (A2A receptor [2]; A2AR IC50 (nM) (@30 μM Adenosine))
1 | Cc1nn2c(N)c(C#N)c(NCCc3ccn(C4(CO)CC4)n3)nc2c1C [Example 55, 7-amino-5-((2-(1-(1-(hydroxymethyl)cyclopropyl)-1H-pyrazol-3-yl)ethyl)amino)-2,3-dimethylpyrazolo[1,5-a]pyrimidine-6-carbonitrile] | 0.74 nM | 250 nM | 8.6 nM | 3790 nM | –
2 | CCc1c(C)nn2c(N)c(C#N)c(NCCc3cccc(C)n3)nc12 [Example 17, 7-Amino-3-ethyl-2-methyl-5-((2-(6-methylpyridin-2-yl)ethyl)amino) pyrazolo[1,5-a]pyrimidine-6-carbonitrile] | 0.15 nM | 260 nM | 0.87 nM | 2380 nM | –
3 | CCc1c(C)nn2c(N)c(C#N)c(NCCc3ccn(C4CCCC4CO)n3)nc12 (stereo not drawn) [Example 115, 7-amino-3-ethyl-5-((2-(1-(2-(hydroxymethyl)cyclopentyl)-1H-pyrazol-3-yl)ethyl)amino)-2-methylpyrazolo[1,5-a]pyrimidine-6-carbonitrile] | 0.3 nM | 117 nM | 9 nM | 829 nM | –
4 | CCc1c(C(F)F)nn2c(N)c(C#N)c(NCCc3ccn(C4(CO)CC4)n3)nc12 [Example 58, 7-amino-2-(difluoromethyl)-3-ethyl-5-((2-(1-(1-(hydroxymethyl)cyclopropyl)-1H-pyrazol-3-yl)ethyl)amino) pyrazolo[1,5-a]pyrimidine-6-carbonitrile] | 0.22 nM | 756 nM | 4.7 nM | 12200 nM | –
5 | Cc1nn2c(N)c(C#N)c(NCCc3cc(C)n(C4(CO)CC4)n3)nc2c1C [Example 86, 7-amino-5-((2-(1-(1-(hydroxymethyl)cyclopropyl)-5-methyl-1H-pyrazol-3-yl)ethyl)amino)-2,3-dimethylpyrazolo[1,5-a]pyrimidine-6-carbonitrile] | 0.2 nM | 43 nM | 19 nM | 2550 nM | –
6 | CCc1c(C)nn2c(N)c(C#N)c(NCCc3cccc(CO)n3)nc12 [Example 45, 7-amino-3-ethyl-5-((2-(6-(hydroxymethyl)pyridin-2-yl)ethyl)amino)-2-methylpyrazolo[1,5-a] pyrimidine-6-carbonitrile] | 0.58 nM | 935 nM | 2.9 nM | 650 nM | –
7 | Cc1nn2c(N)c(C#N)c(NCCc3cccc(C4(CO)CC4)n3)nc2c1C [Example 49, 7-amino-5-((2-(6-(1-(hydroxymethyl)cyclopropyl)pyridin-2-yl)ethyl)amino)-2,3-dimethylpyrazolo[1,5-a]pyrimidine-6-carbonitrile] | 0.3 nM | 635 nM | 6 nM | 4260 nM | –
8 | CCc1c(C)nn2c(N)c(C#N)c(NCCc3cccc(C4(CO)CC4)n3)nc12 [Example 50, 7-amino-3-ethyl-5-((2-(6-(1-(hydroxymethyl)cyclopropyl)pyridin-2-yl)ethyl)amino)-2-methylpyrazolo[1,5-a] pyrimidine-6-carbonitrile] | 0.2 nM | 2160 nM | 3.6 nM | 2370 nM | –
9 | CCc1c(C)nn2c(N)c(C#N)c(NCCc3ccn(C(C)(C)CO)n3)nc12 [Example 32, 7-amino-3-ethyl-5-((2-(1-(1-hydroxy-2-methylpropan-2-yl)-1H-pyrazol-3-yl)ethyl)amino)-2-methylpyrazolo[1,5-a]pyrimidine-6-carbonitrile] | 0.5 nM | 452 nM | 7.3 nM | 2130 nM | –
10 | Cc1nn2c(N)c(C#N)c(NCCc3nc(C4(CO)CC4)cs3)nc2c1Cl [Example 61, 7-amino-3-chloro-5-((2-(4-(1-(hydroxymethyl)cyclopropyl)thiazol-2-yl)ethyl)amino)-2-methylpyrazolo[1,5-a] pyrimidine-6-carbonitrile] | < 1 nM | – | 24 nM | – | 574 nM
11 | Cc1nn2c(N)c(C#N)c(NCCc3ccn(C4(CO)CC4)n3)nc2c1Cl [Example 37, 7-amino-3-chloro-5-((2-(1-(1-(hydroxymethyl)cyclopropyl)-1H-pyrazol-3-yl)ethyl)amino)-2-methylpyrazolo[1,5-a]pyrimidine-6-carbonitrile] | 0.12 nM | 78 nM | 7 nM | 1770 nM | –
12 | CCc1cccc(CCNc2nc3c(C)c(C)nn3c(N)c2C#N)n1 [Example 40, 7-amino-5-((2-(6-ethylpyridin-2-yl)ethyl)amino)-2,3-dimethyl pyrazolo [1,5-a] pyrimidine-6-carbonitrile] | < 0.1 nM | 260 nM | 3.6 nM | 2380 nM | –
13 | Cc1nn2c(N)c(C#N)c(NCCc3cccc(CO)n3)nc2c1Cl [Example 33, 7-amino-3-chloro-5-((2-(6-(hydroxymethyl)pyridin-2-yl)ethyl)amino)-2-methylpyrazolo[1,5-a]pyrimidine-6-carbonitrile] | 0.38 nM | 206 nM | 0.97 nM | 1420 nM | –
14 | Cc1nn2c(N)c(C#N)c(NCCc3cccc(C4CC4CO)n3)nc2c1C (stereo not drawn) [Example 51, 7-amino-5-((2-(6-(2-(hydroxymethyl)cyclopropyl)pyridin-2-yl)ethyl)amino)-2,3-dimethylpyrazolo[1,5-a]pyrimidine-6-carbonitrile] | 0.17 nM | 348 nM | 2.1 nM | 1290 nM | –
15 | Cc1nn2c(N)c(C#N)c(NCCc3cccc(C4(CO)CC4)n3)nc2c1Cl [Example 34, 7-amino-3-chloro-5-((2-(6-(1-(hydroxymethyl)cyclopropyl)pyridin-2-yl)ethyl)amino)-2-methylpyrazolo[1,5-a]pyrimidine-6-carbonitrile] | 0.4 nM | 160 nM | 6 nM | – | –
16 | Cc1nn2c(N)c(C#N)c(NCCc3ccn(C4CCC4CN)n3)nc2c1Cl (stereo not drawn) [Example 95, 7-amino-5-((2-(1-(2-(aminomethyl)cyclobutyl)-1H-pyrazol-3-yl)ethyl)amino)-3-chloro-2-methylpyrazolo[1,5-a]pyrimidine-6-carbonitrile] | 1.2 nM | 112 nM | 53 nM | 1060 nM | –
17 | CCc1c(C)nn2c(N)c(C#N)c(NCCc3ccn(C4CCC4CO)n3)nc12 (racemic) [Example 77, (+−)-7-amino-3-ethyl-5-((2-(1-(2-(hydroxymethyl)cyclobutyl)-1H-pyrazol-3-yl)ethyl)amino)-2-methylpyrazolo[1,5-a]pyrimidine-6-carbonitrile] | 0.1 nM | 81 nM | 2 nM | 700 nM | –
